In patent EP4813984A1 (Jiangsu Hengrui Pharmaceuticals Co., Ltd., priority 2023, dated 2025) one finds EC50 and Emax data, which are given here for ten compounds.

This assay deals with T1, hGLP-1 receptor (Homo sapiens, UniProt P43220).
T1 construct: expressed in transfected cells; host or cells: CHO-K1 (stably transfected with hGLP-1 receptor plasmid and CRE-luc plasmid)
Briefly: Agonist activity against GLP-1 receptor (CRE-luciferase reporter, ONE-Glo Luciferase Assay System). It is filed as cell-based. The settings on record: CHO-K1/CRE-luc/hGLP-1 receptor cells; 5 h incubation with compound; chemiluminescence readout. From the text: This experiment was intended to test the agonist activity of compound molecules against hGLP-1 receptor and evaluate the in vitro activity of the molecules according to EC50. In this experiment, ONE-Glo™ Luciferase Assay System (ONE-Glo™ Luciferase Assay System, Promega, E6110) was used. Under the action of the compound molecules, GLP-1R downstream signaling pathways were activated to cause elevated cAMP level. The binding of cAMP to CRE could initiate the transcriptional expression of a CRE downstream luciferase gene. The luciferase could emit fluorescence when reacting with a substrate thereof. The fluorescence signal, which reflected the activity of the compound for agonizing GLP-1 receptor, was measured by means ONE-Glo™ reagent.
A stably transfected CHO-K1/CRE-luc/hGLP-1 receptor cell strain (hGLP-1 receptor plasmid constructed in-house and CRE-luc plasmid Promega E8471) was constructed. CHO-K1/CRE-luc/hGLP-1 receptor cells were digested, centrifuged, and then resuspended. The single cell suspension was uniformly mixed and adjusted to a viable cell density of 2.78 × 10^5 cells/ml with a cell culture medium (DME/F-12 + 10% FBS). The resulting solution was added to a 96-well cell culture plate at 90 µL/well (Corning, #3903). The culture plate was incubated in an incubator for 16 h (37°C, 5% CO2).
The compound was dissolved in DMSO to prepare a stock solution with an initial concentration of 20 mM. The starting concentration of the small molecule compound was 0.02 mM. The compound was subjected to 3-fold dilution for 10 points, wherein the 11th point was DMSO. Another 96-well plate was taken, to which was added 95 µL/well of a cell culture medium (DME/F-12 + 10% FBS), followed by 5 µL/well of test samples with different concentrations. The mixtures were uniformly mixed. Next, 10 µL/well of test samples with different concentrations were added to the cell culture plate, with two duplicate wells for each sample. The culture plate was incubated in an incubator for 5 h (37°C, 5% CO2). The 96-well cell culture plate was taken out. 100 µL/well of ONE-Glo™ reagent was added, followed by incubation at room temperature for 10 minutes. Chemiluminescence was measured in and by a microplate reader (PHERAstar FS, BMG labtech).
Data were processed and analyzed using Microsoft Excel and Graphpad Prism 10. EC50 values of the compounds were obtained. Table 1. Agonist activity of the compounds of the present invention against hGLP-1 receptor
(A reporter such as luciferase makes a cellular process visible.)

T1 sequence (P43220 24-463): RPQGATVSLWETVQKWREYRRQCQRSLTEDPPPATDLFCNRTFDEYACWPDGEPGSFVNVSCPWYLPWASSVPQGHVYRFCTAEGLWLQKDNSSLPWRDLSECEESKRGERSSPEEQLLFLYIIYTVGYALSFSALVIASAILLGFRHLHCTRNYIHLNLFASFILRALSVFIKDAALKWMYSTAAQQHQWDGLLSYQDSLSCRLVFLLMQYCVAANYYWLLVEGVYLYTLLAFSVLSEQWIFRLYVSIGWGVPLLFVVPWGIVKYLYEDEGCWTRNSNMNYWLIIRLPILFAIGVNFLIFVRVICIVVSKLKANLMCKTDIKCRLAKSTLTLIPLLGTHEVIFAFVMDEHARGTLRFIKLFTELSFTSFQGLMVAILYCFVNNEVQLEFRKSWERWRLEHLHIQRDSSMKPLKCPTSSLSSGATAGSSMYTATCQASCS

The term EC50 denotes the concentration at which the effect is half-maximal. On to `Cc1cc(-n2nc3c(c2N2C[C@@H]4COc5cc6c(cnn6C6CC6)c(F)c5N4C2=O)[C@H](C)N(C(=O)c2cc4cc([C@H]5CCOC(C)(C)C5)ccc4n2[C@@]2(c4noc(=O)[nH]4)C[C@@H]2C)CC3)cc(C)c1F` [Compound 13, (R)-7-cyclopropyl-2-((S)-5-(5-((S)-2,2-dimethyltetrahydro-2H-pyran-4-yl)-1-((1S,2S)-2-methyl-1-(5-oxo-4,5-dihydro-1,2,4-oxadiazol-3-yl)cyclopropyl)-1H-indole-2-carbonyl)-2-(4-fluoro-3,5-dimethylphenyl)-4-methyl-4,5,6,7-tetrahydro-2H-pyrazolo[4,3-c]pyridin-3-yl)-10-fluoro-2,3,3a,4-tetrahydro-1H,7H-imidazo[1',5':4,5][1,4]oxazino[3,2-f]indazol-1-one], for which the EC50 turned out to be 0.01 nM and the Emax stood at 21.50 fold.
The matching figures for `Cc1cc(-n2nc3c(c2-n2ccn(-c4ccc5c(cnn5C)c4F)c2=O)[C@H](C)N(C(=O)c2cc4cc5c(cc4n2[C@@]2(c4noc(=O)[nH]4)C[C@@H]2C)OCC2COCCC52)CC3)cc(C)c1F` (stereo partly drawn) [Compound 4, 3-((1S,2S)-1-(9-((S)-3-(3-(4-fluoro-1-methyl-1H-indazol-5-yl)-2-oxo-2,3-dihydro-1H-imidazol-1-yl)-2-(4-fluoro-3,5-dimethylphenyl)-4-methyl-4,5,6,7-tetrahydro-2H-pyrazolo[4,3-c]pyridine-5-carbonyl)-1,4a,5,11b-tetrahydro-4H-pyrano[4',3':4,5]pyrano[3,2-f]indol-8(2H)-yl)-2-methylcyclopropyl)-1,2,4-oxadiazol-5(4H)-one]: 0.39 nM and 16.51 fold.
`Cc1cc(-n2nc3c(c2N2C[C@@H]4COc5c(c(F)cc6c5cnn6C5CC5)N4C2=O)[C@H](C)N(C(=O)c2cc4cc([C@H]5CCOC(C)(C)C5)ccc4n2[C@@]2(c4noc(=O)[nH]4)C[C@@H]2C)CC3)cc(C)c1F` [Compound 37, (R)-1-cyclopropyl-7-((S)-5-(5-((S)-2,2-dimethyltetrahydro-2H-pyran-4-yl)-1-((1S,2S)-2-methyl-1-(5-oxo-4,5-dihydro-1,2,4-oxadiazol-3-yl)cyclopropyl)-1H-indole-2-carbonyl)-2-(4-fluoro-3,5-dimethylphenyl)-4-methyl-4,5,6,7-tetrahydro-2H-pyrazolo[4,3-c]pyridin-3-yl)-10-fluoro-5,5a,6,7-tetrahydro-1H,8H-imidazo[1',5':4,5][1,4]oxazino[2,3-e]indazol-8-one]: the EC50 turned out to be 0.03 nM and the Emax amounted to 18.06 fold.
On to `Cc1cc(-n2nc3c(c2N2C[C@@H]4COc5cc6c(cnn6C(F)F)c(F)c5N4C2=O)[C@H](C)N(C(=O)c2cc4cc([C@H]5CCOC(C)(C)C5)ccc4n2[C@@]2(c4noc(=O)[nH]4)C[C@@H]2C)CC3)cc(C)c1F` [Compound 25, (R)-7-(difluoromethyl)-2-((S)-5-(5-((S)-2,2-dimethyltetrahydro-2H-pyran-4-yl)-1-((1S,2S)-2-methyl-1-(5-oxo-4,5-dihydro-1,2,4-oxadiazol-3-yl)cyclopropyl)-1H-indole-2-carbonyl)-2-(4-fluoro-3,5-dimethylphenyl)-4-methyl-4,5,6,7-tetrahydro-2H-pyrazolo[4,3-c]pyridin-3-yl)-10-fluoro-2,3,3a,4-tetrahydro-1H,7H-imidazo[1',5':4,5][1,4]oxazino[3,2-f]indazol-1-one], for which the EC50 turned out to be 0.02 nM and the Emax is 18.46 fold.
Take `Cc1cc(-n2nc3c(c2-n2ccn(-c4ccc5c(cnn5C)c4F)c2=O)[C@H](C)N(C(=O)c2cc4cc5c(cc4n2[C@@]2(c4noc(=O)[nH]4)C[C@@H]2C)OCC52CCOCC2)CC3)cc(C)c1F` [Compound 7]: the EC50 is 0.03 nM and the Emax came to 14.46 fold.
For the compound `Cc1cc(-n2nc3c(c2N2C[C@@H]4COc5cc6c(cnn6C(C)C)c(F)c5N4C2=O)[C@H](C)N(C(=O)c2cc4cc([C@H]5CCOC(C)(C)C5)ccc4n2[C@@]2(c4noc(=O)[nH]4)C[C@@H]2C)CC3)cc(C)c1F` [Compound 40, (R)-2-((S)-5-(5-((S)-2,2-dimethyltetrahydro-2H-pyran-4-yl)-1-((1S,2S)-2-methyl-1-(5-oxo-4,5-dihydro-1,2,4-oxadiazol-3-yl)cyclopropyl)-1H-indole-2-carbonyl)-2-(4-fluoro-3,5-dimethylphenyl)-4-methyl-4,5,6,7-tetrahydro-2H-pyrazolo[4,3-c]pyridin-3-yl)-10-fluoro-7-isopropyl-2,3,3a,4-tetrahydro-1H,7H-imidazo[1',5':4,5][1,4]oxazino[3,2-f]indazol-1-one], the EC50 was 0.03 nM and the Emax was determined as 19.36 fold.
The matching figures for `COCCn1ncc2c(F)c3c(cc21)OC[C@H]1CN(c2c4c(nn2-c2cc(C)c(F)c(C)c2)CCN(C(=O)c2cc5cc([C@H]6CCOC(C)(C)C6)ccc5n2[C@@]2(c5noc(=O)[nH]5)C[C@@H]2C)[C@H]4C)C(=O)N31` [Compound 30, (R)-2-((S)-5-(5-((S)-2,2-dimethyltetrahydro-2H-pyran-4-yl)-1-((1S,2S)-2-methyl-1-(5-oxo-4,5-dihydro-1,2,4-oxadiazol-3-yl)cyclopropyl)-1H-indole-2-carbonyl)-2-(4-fluoro-3,5-dimethylphenyl)-4-methyl-4,5,6,7-tetrahydro-2H-pyrazolo[4,3-c]pyridin-3-yl)-10-fluoro-7-(2-methoxyethyl)-2,3,3a,4-tetrahydro-1H,7H-imidazo[1',5':4,5][1,4]oxazino[3,2-f]indazol-1-one]: 0.02 nM and 20.59 fold.
In the case of `C[C@H]1c2c(nn(-c3ccc(F)c(C4CC4)c3)c2N2C[C@@H]3COc4cc5c(cnn5C5CC5)c(F)c4N3C2=O)CCN1C(=O)c1cc2cc([C@H]3CCOC(C)(C)C3)ccc2n1[C@@]1(c2noc(=O)[nH]2)C[C@@H]1C` [Compound 46, (R)-7-cyclopropyl-2-((S)-2-(3-cyclopropyl-4-fluorophenyl)-5-(5-((S)-2,2-dimethyltetrahydro-2H-pyran-4-yl)-1-((1S,2S)-2-methyl-1-(5-oxo-4,5-dihydro-1,2,4-oxadiazol-3-yl)cyclopropyl)-1H-indole-2-carbonyl)-4-methyl-4,5,6,7-tetrahydro-2H-pyrazolo[4,3-c]pyridin-3-yl)-10-fluoro-2,3,3a,4-tetrahydro-1H,7H-imidazo[1',5':4,5][1,4]oxazino[3,2-f]indazol-1-one], the EC50 is 0.05 nM and the Emax turned out to be 16.76 fold.
Turning to `Cc1cc(-n2nc3c(c2N2C[C@@H]4COc5cc6c(cnn6CC6CC6)c(F)c5N4C2=O)[C@H](C)N(C(=O)c2cc4cc([C@H]5CCOC(C)(C)C5)ccc4n2[C@@]2(c4noc(=O)[nH]4)C[C@@H]2C)CC3)cc(C)c1F` [Compound 51, (R)-7-(cyclopropylmethyl)-2-((S)-5-(5-((S)-2,2-dimethyltetrahydro-2H-pyran-4-yl)-1-((1S,2S)-2-methyl-1-(5-oxo-4,5-dihydro-1,2,4-oxadiazol-3-yl)cyclopropyl)-1H-indole-2-carbonyl)-2-(4-fluoro-3,5-dimethylphenyl)-4-methyl-4,5,6,7-tetrahydro-2H-pyrazolo[4,3-c]pyridin-3-yl)-10-fluoro-2,3,3a,4-tetrahydro-1H,7H-imidazo[1',5':4,5][1,4]oxazino[3,2-f]indazol-1-one], the EC50 was 0.02 nM and the Emax turned out to be 21.19 fold.
For the compound `Cc1cc(-n2nc3c(c2N2C[C@@H]4COc5cc6c(cnn6C(C)(C)C)c(F)c5N4C2=O)[C@H](C)N(C(=O)c2cc4cc([C@H]5CCOC(C)(C)C5)ccc4n2[C@@]2(c4noc(=O)[nH]4)C[C@@H]2C)CC3)cc(C)c1F` [Compound 50, (R)-7-(tert-butyl)-2-((S)-5-(5-((S)-2,2-dimethyltetrahydro-2H-pyran-4-yl)-1-((1S,2S)-2-methyl-1-(5-oxo-4,5-dihydro-1,2,4-oxadiazol-3-yl)cyclopropyl)-1H-indole-2-carbonyl)-2-(4-fluoro-3,5-dimethylphenyl)-4-methyl-4,5,6,7-tetrahydro-2H-pyrazolo[4,3-c]pyridin-3-yl)-10-fluoro-2,3,3a,4-tetrahydro-1H,7H-imidazo[1',5':4,5][1,4]oxazino[3,2-f]indazol-1-one], the EC50 was 0.04 nM and the Emax was 18.87 fold.
